Experimental data as given in ChEMBL document CHEMBL4422664, “2-Benzoylbenzofuran derivatives possessing piperazine linker as anticancer agents” (Bioorg Med Chem Lett, 2019).

How the values were obtained:
HCT-116 = test: Cytotoxicity against human HCT116 assessed as reduction in cell viability after 48 hrs by MTT assay; assay type: functional, cell-based; conditions: HCT-116, 48 h
A549 [1] = test: Cytotoxicity against human A549 assessed as reduction in cell viability after 48 hrs by MTT assay; assay type: functional, cell-based; conditions: A549, 48 h
MCF7 = test: Cytotoxicity against human MCF7 assessed as reduction in cell viability after 48 hrs by MTT assay; assay type: functional, cell-based; conditions: MCF7, 48 h
HeLa = test: Cytotoxicity against human HeLa assessed as reduction in cell viability after 48 hrs by MTT assay; assay type: functional, cell-based
SGC-7901 = test: Cytotoxicity against human SGC7901 assessed as reduction in cell viability after 48 hrs by MTT assay; assay type: functional, cell-based; conditions: SGC-7901, 48 h
L02 = test: Cytotoxicity against human L02 assessed as reduction in cell viability after 48 hrs by MTT assay; assay type: cell-based; conditions: L02, 48 h
A549 [2] = test: Induction of apoptosis in human A549 assessed as early apoptotic cells at 1 uM after 24 to 48 hrs by Annexin V/propidium iodide staining-based flow cytometric analysis (reference value: 0.79%); assay type: functional
A549 [3] = test: Induction of apoptosis in human A549 assessed as necrotic cells at 2 uM after 24 to 48 hrs by Annexin V/propidium iodide staining-based flow cytometric analysis (reference value: 0.16%); assay type: functional
A549 [4] = test: Induction of apoptosis in human A549 assessed as viable cells at 2 uM after 24 to 48 hrs by Annexin V/propidium iodide staining-based flow cytometric analysis (reference value: 98.5%); assay type: functional; conditions: read-out: Activity
A549 [5] = test: Induction of apoptosis in human A549 assessed as late apoptotic cells at 1 uM after 24 to 48 hrs by Annexin V/propidium iodide staining-based flow cytometric analysis (reference value: 0.54%); assay type: functional
A549 [6] = test: Induction of apoptosis in human A549 assessed as necrotic cells at 1 uM after 24 to 48 hrs by Annexin V/propidium iodide staining-based flow cytometric analysis (reference value: 0.16%); assay type: functional
A549 [7] = test: Induction of apoptosis in human A549 assessed as viable cells at 1 uM after 24 to 48 hrs by Annexin V/propidium iodide staining-based flow cytometric analysis (reference value: 98.5%); assay type: functional; conditions: read-out: Activity
A549 [8] = test: Induction of apoptosis in human A549 assessed as late apoptotic cells at 2 uM after 24 to 48 hrs by Annexin V/propidium iodide staining-based flow cytometric analysis (reference value: 0.54%); assay type: functional
A549 [9] = test: Induction of apoptosis in human A549 assessed as early apoptotic cells at 2 uM after 24 to 48 hrs by Annexin V/propidium iodide staining-based flow cytometric analysis (reference value: 0.79%); assay type: functional
A549 [10] = test: Induction of apoptosis in human A549 assessed as early apoptotic cells after 24 to 48 hrs by Annexin V/propidium iodide staining-based flow cytometric analysis; assay type: functional, cell-based

Row | SMILES | IC50 (HCT-116) [µM] | IC50 (A549 [1]) [µM] | IC50 (MCF7) [µM] | IC50 (HeLa) [µM] | IC50 (SGC-7901) [µM] | IC50 (L02) [µM] | Activity (A549 [2]) [%] | Activity (A549 [3]) [%] | viability at 2 µM (A549 [4]) [%] | Activity (A549 [5]) [%] | Activity (A549 [6]) [%] | viability at 1 µM (A549 [7]) [%] | Activity (A549 [8]) [%] | Activity (A549 [9]) [%] | Activity (A549 [10])
1 | CCN(CC)c1ccc2cc(C(=O)c3ccc(N4CCN(C(=O)CN5CCN(S(=O)(=O)c6ccc(C#N)cc6)CC5)CC4)cc3)oc2c1 | 36.4 | > 40 | > 40 | 8.47 | > 40 | 44.1 |  |  |  |  |  |  |  |  | 
2 | CCN(CC)c1ccc2cc(C(=O)c3ccc(N4CCN(C(=O)CN5CCN(C(=O)CCl)CC5)CC4)cc3)oc2c1 | > 40 | 3.06 | > 40 | 5.52 | 1.63 | 20.9 |  |  |  |  |  |  |  |  | 
3 | CCN(CC)c1ccc2cc(C(=O)c3ccc(N4CCN(C(=O)CN5CCN(Cc6ccc(F)c(F)c6)CC5)CC4)cc3)oc2c1 | 26.3 | 5.44 | 9.22 | 6.4 | 1.78 | 10.2 |  |  |  |  |  |  |  |  | 
4 | CCN(CC)c1ccc2cc(C(=O)c3ccc(N4CCN(C(=O)CN5CCN(S(=O)(=O)C6CC6)CC5)CC4)cc3)oc2c1 | > 40 | 17.3 | > 40 | 28.1 | 15.3 | > 100 |  |  |  |  |  |  |  |  | 
5 | C#CCN1CCN(CC(=O)N2CCN(c3ccc(C(=O)c4cc5ccc(N(CC)CC)cc5o4)cc3)CC2)CC1 | 17.7 | > 40 | > 40 | > 40 | 20.1 | > 100 |  |  |  |  |  |  |  |  | 
6 | CCN(CC)c1ccc2cc(C(=O)c3ccc(N4CCN(C(=O)CN5CCN(C(=O)c6cc(Cl)cc(Cl)c6)CC5)CC4)cc3)oc2c1 | 28 | 6.74 | 16.1 | 8.11 | 2.72 | > 100 |  |  |  |  |  |  |  |  | 
7 | O=c1[nH]cc(F)c(=O)[nH]1 [FLUOROURACIL] | 15.5 | 10.6 | 26.3 | 10.7 | 12 |  |  |  |  |  |  |  |  |  | 
8 | CCN(CC)c1ccc2cc(C(=O)c3ccc(N4CCN(C(=O)CN5CCN(C(=O)c6ccc(F)cc6)CC5)CC4)cc3)oc2c1 | > 40 | > 40 | > 40 | > 40 | > 40 | > 100 |  |  |  |  |  |  |  |  | 
9 | CCN(CC)c1ccc2cc(C(=O)c3ccc(N4CCN(C(=O)CN5CCN(CC(=O)c6ccc(C#N)cc6)CC5)CC4)cc3)oc2c1 | > 40 | 4.57 | 11.9 | 2.44 | > 40 | > 100 |  |  |  |  |  |  |  |  | 
10 | CCOC(=O)CN1CCN(CC(=O)N2CCN(c3ccc(C(=O)c4cc5ccc(N(CC)CC)cc5o4)cc3)CC2)CC1 | > 40 | > 40 | > 40 | 22.1 | > 40 | 68.7 |  |  |  |  |  |  |  |  | 
11 | CCN(CC)c1ccc2cc(C(=O)c3ccc(N4CCN(C(=O)CN5CCN(C(=O)/C=C/c6ccccc6)CC5)CC4)cc3)oc2c1 | 6.81 | 9.45 | 13.4 | 5.26 | 1.14 | > 100 |  |  |  |  |  |  |  |  | 
12 | CCN(CC)c1ccc2cc(C(=O)c3ccc(N4CCN(C(=O)CN5CCN(CC(C)=O)CC5)CC4)cc3)oc2c1 | 24 | 8.92 | 11 | 2.76 | 2.21 | > 100 |  |  |  |  |  |  |  |  | 
13 | CCN(CC)c1ccc2cc(C(=O)c3ccc(N4CCN(C(=O)CN5CCN(CC(=O)c6ccc(F)cc6)CC5)CC4)cc3)oc2c1 | 14.2 | 0.57 | 16.7 | 9.64 | 3.44 | 68.4 |  |  |  |  |  |  |  |  | 
14 | CCN(CC)c1ccc2cc(C(=O)c3ccc(N4CCN(C(=O)CN5CCN(Cc6ccc(/C=C/C(=O)OC)cc6)CC5)CC4)cc3)oc2c1 | 9.92 | 2.81 | 8.73 | 3.04 | 0.74 | > 100 | 7.95 | 3.87 | 9.27 | 7.98 | 0.82 | 83.3 | 43.8 | 43.1 | Dose-dependent effect
15 | CCN(CC)c1ccc2cc(C(=O)c3ccc(N4CCN(C(=O)CN5CCN(S(=O)(=O)c6ccc(OC(F)(F)F)cc6)CC5)CC4)cc3)oc2c1 | 7.68 | > 40 | 20.1 | 30.2 | 24.4 | 34.7 |  |  |  |  |  |  |  |  | 
16 | CCN(CC)c1ccc2cc(C(=O)c3ccc(N4CCN(C(=O)CN5CCN(CC(=O)c6ccc(OC)cc6)CC5)CC4)cc3)oc2c1 | 17.9 | 4.84 | 16.7 | 15.3 | 8.91 | > 100 |  |  |  |  |  |  |  |  | 
17 | CCN(CC)c1ccc2cc(C(=O)c3ccc(N4CCN(C(=O)CN5CCN(S(=O)(=O)c6ccc(C(F)(F)F)cc6)CC5)CC4)cc3)oc2c1 | 32.2 | > 40 | 17.5 | > 40 | > 40 | 17 |  |  |  |  |  |  |  |  | 
18 | CCN(CC)c1ccc2cc(C(=O)c3ccc(N4CCN(C(=O)CN5CCN(CC(=O)c6ccc(C)cc6)CC5)CC4)cc3)oc2c1 | 13.4 | 0.87 | > 40 | 1.68 | > 40 | 36.5 |  |  |  |  |  |  |  |  | 
19 | CCN(CC)c1ccc2cc(C(=O)c3ccc(N4CCN(C(=O)CN5CCN(S(=O)(=O)c6ccc(F)cc6)CC5)CC4)cc3)oc2c1 | > 40 | 33.2 | 20.5 | 16.7 | > 40 | 9.24 |  |  |  |  |  |  |  |  | 
20 | CCN(CC)c1ccc2cc(C(=O)c3ccc(N4CCN(C(=O)CN5CCN(Cc6ccc(C#N)cc6)CC5)CC4)cc3)oc2c1 | > 40 | 17.4 | > 40 | > 40 | 26.2 | 29.6 |  |  |  |  |  |  |  |  | 
21 | CCN(CC)c1ccc2cc(C(=O)c3ccc(N4CCN(C(=O)CN5CCN(Cc6ccc(C(F)(F)F)cc6)CC5)CC4)cc3)oc2c1 | > 40 | 20.1 | 18.2 | > 40 | 32 | 6.54 |  |  |  |  |  |  |  |  | 
22 | CCN(CC)c1ccc2cc(C(=O)c3ccc(N4CCN(C(=O)CN5CCN(C(=O)c6ccc(C(F)(F)F)cc6)CC5)CC4)cc3)oc2c1 | > 40 | > 40 | > 40 | > 40 | > 40 | 14.3 |  |  |  |  |  |  |  |  | 
23 | CCN(CC)c1ccc2cc(C(=O)c3ccc(N4CCN(C(=O)CN5CCN(CC(=O)c6ccccc6)CC5)CC4)cc3)oc2c1 | 27.1 | 12.6 | 34.5 | 3.12 | 4.03 | 53.8 |  |  |  |  |  |  |  |  | 
24 | CCN(CC)c1ccc2cc(C(=O)c3ccc(N4CCN(C(=O)CN5CCNCC5)CC4)cc3)oc2c1 | 1.87 | 0.32 | 5.34 | 1.35 | 1.22 | > 100 |  |  |  |  |  |  |  |  | 
25 | CCN(CC)c1ccc2cc(C(=O)c3ccc(N4CCN(C(=O)CN5CCN(CC(=O)c6ccc7ccccc7c6)CC5)CC4)cc3)oc2c1 | > 40 | 26.3 | > 40 | 17.1 | > 40 | > 100 |  |  |  |  |  |  |  |  | 
